Earlier results, collected in patent publication US20110091452A1, “4,5-Dihydromacbecin Derivatives and Their Use in the Treatment of Cancer or B-Cell Malignancies” (priority 2006, published 2011).

How the values were obtained:
Hsp90 = Hsp90 (Homo sapiens, UniProt P07900)
bacteria and fungi = conditions: in vitro
[1] = target: terminal deoxynucleotidyl transferase (Homo sapiens, UniProt P04053)
terminal deoxynucleotidyl transferase, sequence (P04053 whole entry, species assumed): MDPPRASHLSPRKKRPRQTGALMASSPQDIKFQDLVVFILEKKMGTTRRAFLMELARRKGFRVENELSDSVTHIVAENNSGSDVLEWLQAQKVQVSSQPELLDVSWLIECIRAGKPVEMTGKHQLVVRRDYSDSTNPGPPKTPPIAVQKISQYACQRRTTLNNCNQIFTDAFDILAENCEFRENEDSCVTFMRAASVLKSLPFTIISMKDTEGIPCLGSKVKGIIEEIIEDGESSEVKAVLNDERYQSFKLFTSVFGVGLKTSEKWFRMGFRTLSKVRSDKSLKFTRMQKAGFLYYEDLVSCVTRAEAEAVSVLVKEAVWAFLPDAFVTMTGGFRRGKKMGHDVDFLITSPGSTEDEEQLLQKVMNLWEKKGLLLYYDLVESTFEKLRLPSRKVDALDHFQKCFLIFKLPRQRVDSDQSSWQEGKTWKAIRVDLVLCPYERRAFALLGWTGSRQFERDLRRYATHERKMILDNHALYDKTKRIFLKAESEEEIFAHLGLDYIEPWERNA

## CO[C@H]1C[C@H](C)Cc2cc(O)cc(c2)NC(=O)/C=C/CC[C@H](OC)[C@@H](OC(N)=O)/C(C)=C/[C@H](C)[C@H]1O [KOSN1559]
Hsp90; relative to 17-AAG
  binding affinity to Hsp90, greater than 17-AAG: 8 fold
Hsp90; relative to geldanamycin
  binding affinity to Hsp90, greater than geldanamycin: 4 fold

## COC1=C2C[C@@H](C)C[C@H](OC)[C@H](O)[C@@H](C)/C=C(\C)[C@H](OC(N)=O)[C@@H](OC)/C=C\C=C(/C)C(=O)NC(=CC1=O)C2=O [geldanamycin]
protozoa
  activity in vitro against protozoa: strong activity
Bacteria and fungi
  activity against bacteria and fungi: weak activity

## CO[C@H]1[C@@H](OC)C[C@H](C)[C@@H](OC)C2=CC(=O)C=C(NC(=O)/C(C)=C/C=C\[C@H](C)[C@@H](OC(N)=O)/C(C)=C/[C@@H]1C)C2=O [macbecin]
[1]
  inhibition of terminal deoxynucleotidyl transferase activity: not inhibited
Reverse transcriptase
  inhibition of reverse transcriptase activity: not inhibited
